The text below walks through data of patent publication US20210198277A1, “AMINE-SUBSTITUTED ARYL OR HETEROARYL COMPOUNDS” (Epizyme, Inc., priority 2016, published 2021).

The target in test [1] is T1, EHMT1 (Homo sapiens, UniProt Q9H9B1).
T1 sequence (Q9H9B1 1-1298): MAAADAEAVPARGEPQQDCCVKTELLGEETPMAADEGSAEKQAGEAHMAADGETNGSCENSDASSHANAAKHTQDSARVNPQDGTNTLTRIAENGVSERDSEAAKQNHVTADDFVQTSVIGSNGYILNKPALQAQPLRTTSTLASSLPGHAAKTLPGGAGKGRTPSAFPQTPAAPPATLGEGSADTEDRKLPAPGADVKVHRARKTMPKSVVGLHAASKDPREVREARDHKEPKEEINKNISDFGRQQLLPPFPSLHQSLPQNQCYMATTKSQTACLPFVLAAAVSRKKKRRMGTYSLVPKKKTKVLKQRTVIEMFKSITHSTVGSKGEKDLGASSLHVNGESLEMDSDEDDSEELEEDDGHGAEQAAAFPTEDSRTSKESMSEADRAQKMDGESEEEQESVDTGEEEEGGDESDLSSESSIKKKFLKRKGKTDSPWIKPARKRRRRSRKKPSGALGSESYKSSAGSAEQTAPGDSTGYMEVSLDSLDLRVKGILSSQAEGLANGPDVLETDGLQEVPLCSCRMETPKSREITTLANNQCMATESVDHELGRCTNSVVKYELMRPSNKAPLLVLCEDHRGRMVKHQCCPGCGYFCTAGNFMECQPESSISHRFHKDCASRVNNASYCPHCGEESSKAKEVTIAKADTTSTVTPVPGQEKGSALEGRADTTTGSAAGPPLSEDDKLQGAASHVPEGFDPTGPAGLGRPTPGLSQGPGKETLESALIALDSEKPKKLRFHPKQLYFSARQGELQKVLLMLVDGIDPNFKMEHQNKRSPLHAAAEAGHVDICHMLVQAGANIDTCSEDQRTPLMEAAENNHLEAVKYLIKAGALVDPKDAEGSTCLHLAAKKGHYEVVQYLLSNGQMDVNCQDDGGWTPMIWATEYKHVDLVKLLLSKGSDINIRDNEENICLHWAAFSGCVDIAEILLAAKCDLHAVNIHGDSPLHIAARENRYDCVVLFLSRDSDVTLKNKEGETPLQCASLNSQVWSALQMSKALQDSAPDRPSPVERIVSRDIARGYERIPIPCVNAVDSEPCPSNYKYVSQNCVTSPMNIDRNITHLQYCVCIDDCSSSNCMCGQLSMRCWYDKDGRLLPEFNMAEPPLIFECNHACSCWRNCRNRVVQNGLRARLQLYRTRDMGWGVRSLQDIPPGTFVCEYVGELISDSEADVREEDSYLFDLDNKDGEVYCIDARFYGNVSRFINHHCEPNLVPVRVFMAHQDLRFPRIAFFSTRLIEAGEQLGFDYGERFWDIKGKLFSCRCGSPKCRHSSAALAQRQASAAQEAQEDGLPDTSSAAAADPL
Put plainly: EHMT1 enzyme assay on peptide substrate (EHMT1 PEP). Type of test: biochemical. As to conditions: Table III; read-out: EHMT1 PEP (IC50 μM).

Test [2] deals with T2, human EHMT2 913-1193 (Homo sapiens, UniProt Q96KQ7).
T2 construct: recombinant purified human EHMT2 913-1193, Viva; purchased Viva
T2 sequence (Q96KQ7 913-1193): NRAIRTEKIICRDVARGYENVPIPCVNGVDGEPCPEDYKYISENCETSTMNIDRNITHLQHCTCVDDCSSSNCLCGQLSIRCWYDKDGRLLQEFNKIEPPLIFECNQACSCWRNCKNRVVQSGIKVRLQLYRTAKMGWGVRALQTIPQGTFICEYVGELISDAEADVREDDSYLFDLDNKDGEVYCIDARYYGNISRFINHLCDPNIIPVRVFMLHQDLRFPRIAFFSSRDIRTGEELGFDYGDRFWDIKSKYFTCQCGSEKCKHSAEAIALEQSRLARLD
Put plainly: EHMT2 enzyme assay on histone peptide substrate (EHMT2 PEP). Format: biochemical. As to conditions: Table III; read-out: EHMT2 PEP (IC50 μM). In a few lines:
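Radiometric methyltransferase assay: 0.031 nM EHMT2 913-1193 preincubated 30 min with compound (10-point 3-fold series, top final 50 μM, 2% DMSO) in 20 mM Bicine pH 7.5, 1 mM TCEP. Biotinylated histone peptide methylated with ^3H-SAM for 60 min at room temperature, quenched with unlabeled SAM, captured on streptavidin Flashplates and counted.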

In the case of `CNc1cc(Nc2cc(OCCCN3CCCC3)c(OC)cn2)nc(C)c1F` [Compound 309, 5-fluoro-N^2-(5-methoxy-4-(3-(pyrrolidin-1-yl)propoxy)pyridin-2-yl)-N^4,6-dimethylpyridine-2,4-diamine], the IC50 in test [1] and in test [2] was less than 0.1 µM in each case.
Consider `CNc1cc(C)nc(Nc2cc(OCCCN3CCCC3)c(OC)cn2)n1` [Compound 303, N^2-(5-methoxy-4-(3-(pyrrolidin-1-yl)propoxy)pyridin-2-yl)-N^4,6-dimethylpyrimidine-2,4-diamine], for which the 50% inhibitory concentration (IC50) (usually the concentration that gives 50% inhibition) was 0.1 to 1 µM in test [1] and less than 0.1 µM in test [2].
On the same counts, the results for `CNc1ccnc(Nc2cccc(N3CCC(N(C)C)C3=O)c2)n1` (stereo not drawn) [Compound 275] are greater than 10 µM and greater than 10 µM.
Take `CNc1cc(C)nc(Nc2ccc(OC)c(OCC3CCN(C4CCC4)C3)c2)n1` (stereo not drawn) [Compound 446, N^2-(3-((1-cyclobutylpyrrolidin-3-yl)methoxy)-4-methoxyphenyl)-N^4,6-dimethylpyrimidine-2,4-diamine]: the IC50 in test [1] and in test [2] was less than 0.1 µM in each case.
With `CNc1ccnc(Nc2ccc(OC)c(OCCCN3CCC(C)C3)c2)n1` (stereo not drawn) [Compound 293, N^2-(4-methoxy-3-(3-(3-methylpyrrolidin-1-yl)propoxy)phenyl)-N^4-methylpyrimidine-2,4-diamine], the IC50 is 0.1 to 1 µM in test [1] and 1 to 10 µM in test [2].
For `CNc1ccnc(Nc2cccc(N3CCC(N)C3=O)c2)n1` (stereo not drawn) [Compound 274], in that order: 1 to 10 µM and 1 to 10 µM.
On the same counts, the results for `CCOc1ccc(Nc2nccc(NC)n2)cc1OCCCN1CCCC1` [Compound 430, N^2-(4-ethoxy-3-(3-(pyrrolidin-1-yl)propoxy)phenyl)-N^4-methylpyrimidine-2,4-diamine] are greater than 10 µM and greater than 10 µM.
Regarding `CNc1cc(COC)nc(Nc2ccc(OC)c(OCCCN3CCCC3)c2)n1` [Compound 441, N^2-(4-methoxy-3-(3-(pyrrolidin-1-yl)propoxy)phenyl)-6-(methoxymethyl)-N^4-methylpyrimidine-2,4-diamine], the IC50 in test [1] and in test [2] was 0.1 to 1 µM in each case.
With `CNc1cc(Nc2cccc(COCCN3CCCC3)n2)ccn1` [Compound 268, N^2-methyl-N^4-(6-((2-(pyrrolidin-1-yl)ethoxy)methyl)pyridin-2-yl)pyridine-2,4-diamine], the IC50 in test [1] and in test [2] was greater than 10 µM throughout.
With `COc1cnc(Nc2nccc3[nH]ccc23)cc1OCCCN1CCCC1` [Compound 304], the IC50 in test [1] and in test [2] was less than 0.1 µM in each case.
Turning to `COc1cnc(Nc2cnc3ccccn23)cc1OCCCN1CCCC1` [Compound 321, N-(5-methoxy-4-(3-(pyrrolidin-1-yl)propoxy)pyridin-2-yl)imidazo[1,2-a]pyridin-3-amine], the IC50 in test [1] and in test [2] was 1 to 10 µM each time.
In the case of `CNc1ccnc(Nc2ccc(C3CC3)c(OCCCN3CCCC3)c2)n1` [Compound 314, N^2-(4-cyclopropyl-3-(3-(pyrrolidin-1-yl)propoxy)phenyl)-N^4-methylpyrimidine-2,4-diamine], the concentration for half-maximal inhibition (IC50) in test [1] and in test [2] was 0.1 to 1 µM in each case.
On to `CCOc1ccc(Nc2nc(C)cc(NC)n2)cc1OCCCN1CCCC1` [Compound 432, N^2-(4-ethoxy-3-(3-(pyrrolidin-1-yl)propoxy)phenyl)-N^4,6-dimethylpyrimidine-2,4-diamine], for which the half-inhibitory concentration (IC50) in test [1] and in test [2] was greater than 10 µM throughout.
With `CCc1nc(Nc2ccc(OC)c(OCCCN3CCCC3)c2)nc(NC)c1F` [Compound 319, 6-ethyl-5-fluoro-N^2-(4-methoxy-3-(3-(pyrrolidin-1-yl)propoxy)phenyl)-N^4-methylpyrimidine-2,4-diamine], the IC50 in test [1] and in test [2] was 0.1 to 1 µM throughout.
Consider `CNc1cc(C)nc(Nc2cc(OCCCN3CCCC3)c(OC)cn2)c1` [Compound 307, N^2-(5-methoxy-4-(3-(pyrrolidin-1-yl)propoxy)pyridin-2-yl)-N^4,6-dimethylpyridine-2,4-diamine], for which the IC50 in test [1] and in test [2] was less than 0.1 µM each time.
Turning to `CNc1ccnc(Nc2cc(OCCCN3CCCC3)c(OC)cn2)c1` [Compound 305, N^2-(5-methoxy-4-(3-(pyrrolidin-1-yl)propoxy)pyridin-2-yl)-N^4-methylpyridine-2,4-diamine], the half-maximal inhibitory concentration (IC50) in test [1] and in test [2] was less than 0.1 µM in each case.
Take `CNc1cc(Nc2ccc(OC)c(OCCCN3CCCC3)c2)cc(C(F)(F)F)n1` [Compound 273]: the IC50 in test [1] and in test [2] was greater than 10 µM in each case.
On to `CNc1ccnc(Nc2cccc3oc(CCN(C)C)nc23)n1` [Compound 295], for which the IC50 in test [1] and in test [2] was greater than 10 µM throughout.
Consider `CNc1ccnc(Nc2ccc(OC)c(OCc3noc(C4CC4)n3)c2)n1` [Compound 433, N^2-(3-((5-cyclopropyl-1,2,4-oxadiazol-3-yl)methoxy)-4-methoxyphenyl)-N^4-methylpyrimidine-2,4-diamine], for which the half-inhibitory concentration (IC50) in test [1] is 1 to 10 µM; in test [2], greater than 10 µM.
On the same counts, the results for `CNc1cc(C)nc(Nc2ccc(C3CC3)c(OCCCN3CCCC3)c2)n1` [Compound 313, N^2-(4-cyclopropyl-3-(3-(pyrrolidin-1-yl)propoxy)phenyl)-N^4,6-dimethylpyrimidine-2,4-diamine] are 0.1 to 1 µM and 0.1 to 1 µM.
For the compound `CNc1ccnc(Nc2cccc(COCCN3CCCC3)n2)c1` [Compound 267, N^4-methyl-N^2-(6-((2-(pyrrolidin-1-yl)ethoxy)methyl)pyridin-2-yl)pyridine-2,4-diamine], the IC50 in test [1] and in test [2] was greater than 10 µM each time.
On to `CNc1ccnc(Nc2ccc(OC)c(OCCC3CCCN3C)c2)n1` (stereo not drawn) [Compound 288, N^2-(4-methoxy-3-(2-(1-methylpyrrolidin-2-yl)ethoxy)phenyl)-N^4-methylpyrimidine-2,4-diamine], for which the half-inhibitory concentration (IC50) in test [1] and in test [2] was 0.1 to 1 µM throughout.
In the case of `CNc1ccnc(Nc2ccc(OC)c(OCCCN3CCCC3C)c2)n1` (stereo not drawn) [Compound 290, N^2-(4-methoxy-3-(3-(2-methylpyrrolidin-1-yl)propoxy)phenyl)-N^4-methylpyrimidine-2,4-diamine], the IC50 in test [1] and in test [2] was 0.1 to 1 µM each time.
Turning to `CNc1ccnc(Nc2ccc(OC)c(OC[C@@H]3CN(C)C[C@H]3C)c2)n1` (single isomer, unassigned) [Compound 438], the IC50 in test [1] and in test [2] was greater than 10 µM throughout.
For `CCOc1ccc(Nc2nccc(NC)n2)cc1OCC1CCN(C)C1` (stereo not drawn) [Compound 431], the IC50 in test [1] and in test [2] was greater than 10 µM in each case.
On to `CNc1cc(N2CCCC2)nc(Nc2ccc(OC)c(OCCCN3CCCC3)c2)n1` [Compound 450, N^2-(4-methoxy-3-(3-(pyrrolidin-1-yl)propoxy)phenyl)-N^4-methyl-6-(pyrrolidin-1-yl)pyrimidine-2,4-diamine], for which the IC50 in test [1] was greater than 10 µM; in test [2] it was 1 to 10 µM.
Turning to `CNc1cc(C)nc(Nc2ccc(OC)c(OCC3CCCO3)c2)n1` (stereo not drawn) [Compound 452, N^2-(4-methoxy-3-((tetrahydrofuran-2-yl)methoxy)phenyl)-N^4,6-dimethylpyrimidine-2,4-diamine], the IC50 in test [1] was 1 to 10 µM; in test [2], greater than 10 µM.
